Test results published in patent publication US8822430B2 (Gilead Sciences, Inc., priority 2009, dated 2014).
pEC50: −log10 of the molar value.

What follows are compounds tested on HCV 1b RLuc cells (dicistronic genotype 1b Con1 replicon) (assay: Renilla luciferase (RLuc)-based HCV replicon reporter assay). Details: Hepatitis C virus, 72 h, HCV 1b RLuc replicon, 72 hours; read-out: Activity (antiviral potency [EC50]).
Format: cell-based, HCV genotype 1b
Protocol: Antiviral potency (EC50) was determined using a Renilla luciferase (RLuc)-based HCV replicon reporter assay. To perform the assay, HCV 1b RLuc cells (harboring a dicistronic genotype 1b Con1 replicon that encodes a RLuc reporter), or HCV 1a RLuc cells (harboring a dicistronic genotype 1a H77 replicon that encodes a RLuc reporter), were dispensed into 384-well plates. Compounds were re-suspended in DMSO at a concentration of 10 mM and serially diluted in DMSO using an automated pipeting instrument. Serially diluted compounds were mixed with cell culture media and added to the seeded cells. DMSO was used as a negative (solvent) control, and the protease inhibitor ITMN-191 was included at a concentration >100×EC50 as a positive control. 72 hours later, cells were lysed and Renilla luciferase activity quantified as recommended by the manufacturer (Promega-Madison, Wis.). Non-linear regression was performed to calculate EC50 values.
Biological data (antiviral potency [EC50] was determined using a Renilla luciferase (RLuc)-based HCV replicon reporter assay—HCV 1b RLuc) for representative compounds of the invention is provided in the following table. These compounds can be prepared using procedures similar to those described above.
For `COC(=O)N[C@H](C(=O)N1CCC[C@H]1c1ncc(-c2ccc(-c3ccc(-c4cnc([C@@H]5CC[C@H]6CN(C(=O)OC)CC(=O)N65)[nH]4)cc3)cc2)[nH]1)C(C)C`, the pEC50 was 10.18. For `COC(=O)NC(C(=O)N1CCC[C@H]1c1ncc(-c2ccc(-c3ccc4cc(-c5cnc([C@@H]6CCCN6C(=O)[C@@H](NC(=O)OC)C(C)C)[nH]5)ccc4c3)cc2)[nH]1)c1ccccc1` (some centres unmarked), the pEC50 was 11.01. `COC(=O)N[C@H](C(=O)N1CCC[C@H]1c1ncc(-c2ccc(-c3ccc(-c4ccc(-c5cnc([C@@H]6CCCN6C(=O)[C@@H](NC(=O)OC)C(C)C)[nH]5)cc4)cc3)cc2)[nH]1)C(C)C` was tested, and the pEC50 was 10.62. With `COC(=O)N[C@H](C(=O)N1CC2(CC2)C[C@H]1c1ncc(-c2ccc3cc(-c4ccc(-c5cnc([C@@H]6[C@H]7CC[C@H](C7)N6C(=O)[C@@H](NC(=O)OC)C(C)C)[nH]5)cc4)ccc3c2)[nH]1)C(C)C` the pEC50 was 11.17. `COC(=O)N[C@H](C(=O)N1CCC[C@H]1c1ncc(-c2ccc(N3CCC(c4cnc([C@@H]5CCCN5C(=O)[C@@H](NC(=O)OC)C(C)C)[nH]4)CC3)cc2)[nH]1)C(C)C` was tested, and the pEC50 was 9.34. In the case of `COC(=O)N[C@H](C(=O)N1CCC[C@H]1c1ncc(-c2ccc3c(c2)Cc2cc(-c4cnc([C@@H]5CCCN5C(=O)[C@@H](NC(=O)OC)C(C)C)[nH]4)ccc2-3)[nH]1)C(C)C`, the pEC50 was 10.86. Work on `COC(=O)N[C@H](C(=O)N1CCC[C@H]1c1ncc(-c2ccc3c(c2)COc2cc(-c4ccc5nc([C@@H]6[C@H]7CC[C@H](C7)N6C(=O)[C@@H](NC(=O)OC)C(C)C)[nH]c5c4)ccc2-3)[nH]1)C(C)C` yielded a pEC50 of 11.15. `COC(=O)N[C@H](C(=O)N1CCC[C@H]1C(=O)Nc1ccc(-c2ccc(-c3cnc([C@@H]4CCCN4C(=O)[C@@H](NC(=O)OC)C(C)C)[nH]3)cc2)cc1)C(C)C` was tested, and the pEC50 was 9.91. `COC(=O)N[C@H](C(=O)N1CCC[C@H]1c1ncc(-c2ccc3cc(-c4ccc5cc(-c6cnc([C@@H]7[C@H]8CC[C@H](C8)N7C(=O)[C@@H](NC(=O)OC)C(C)C)[nH]6)ccc5c4)ccc3c2)[nH]1)C(C)C` gave a pEC50 of 9.55. With `COC(=O)N[C@H](C(=O)N1CCC[C@H]1c1ncc(-c2ccc(-c3ccc4cc(-c5cnc([C@@H]6CCCN6C(=O)[C@@H](NC(=O)OC)C6CCOCC6)[nH]5)ccc4c3)cc2)[nH]1)C1CCOCC1` the pEC50 was 10.16. `COC(=O)NC(C(=O)N1CCC[C@H]1c1ncc(-c2cc3sc(-c4ccc(-c5cnc([C@@H]6CCCN6C(=O)[C@H](NC(=O)OC)c6ccccc6)[nH]5)cc4)cc3s2)[nH]1)C(C)C` (some centres unmarked) showed a pEC50 of 11.23. With `COC(=O)N[C@H](C(=O)N1CCC[C@H]1c1ncc(-c2ccc3cc(-c4ccc(-c5cnc([C@@H]6CCCN6C(=O)[C@H](NC(=O)OC)c6ccc(F)cc6)[nH]5)cc4)ccc3c2)[nH]1)C(C)C` the pEC50 was 10.85. Work on `COCC[C@H](NC(=O)OC)C(=O)N1CCS[C@H]1c1ncc(-c2ccc(-c3ccc4cc(-c5cnc([C@@H]6CC7(CC7)CN6C(=O)[C@@H](NC(=O)OC)C(C)C)[nH]5)ccc4c3)cc2)[nH]1` yielded a pEC50 of 10.40. Work on `COC(=O)N[C@H](C(=O)N1C[C@@H](C#N)C[C@H]1c1ncc(-c2ccc3c(c2)C(F)(F)c2cc(-c4ccc5nc([C@@H]6CC7(CC7)CN6C(=O)[C@@H](NC(=O)OC)C(C)C)[nH]c5c4)ccc2-3)[nH]1)C(C)C` yielded a pEC50 of 11.19. Work on `COC(=O)N[C@H](C(=O)N1CCC[C@H]1c1ncc(C#Cc2ccc(C#Cc3cnc([C@@H]4CCCN4C(=O)[C@@H](NC(=O)OC)C(C)C)[nH]3)cc2)[nH]1)C(C)C` yielded a pEC50 of 10.32. With `COC(=O)N[C@H](C(=O)N1CCC[C@H]1c1ncc(-c2ccc3cc(-c4ccc(-c5cnc([C@@H]6CCCN6C(=O)[C@H](NC(=O)OC)c6ccsc6)[nH]5)cc4)ccc3c2)[nH]1)C(C)C` the pEC50 was 10.80. With `COC(=O)N[C@H](C(=O)N1CCC[C@H]1CNC(=O)c1ccc(-c2ccc(-c3cnc([C@@H]4CCCN4C(=O)[C@@H](NC(=O)OC)C(C)C)[nH]3)cc2)cc1)C(C)C` the pEC50 was 10.04. `COC(=O)N[C@H](C(=O)N1CCC[C@H]1c1ncc(-c2cc3cc4sc(-c5cnc([C@@H]6CCCN6C(=O)[C@@H](NC(=O)OC)C(C)C)[nH]5)cc4cc3s2)[nH]1)C(C)C` gave a pEC50 of 11.11. `COC(=O)N[C@H](C(=O)N1CCC[C@H]1c1ncc(-c2ccc3c(c2)sc2cc(-c4cnc([C@@H]5CCCN5C(=O)[C@@H](NC(=O)OC)C(C)C)[nH]4)ccc23)[nH]1)C(C)C` gave a pEC50 of 11.13. Compound `COC(=O)N[C@H](C(=O)N1CC2(CC2)C[C@H]1c1ncc(-c2ccc(-c3ccc(-c4ccc5nc([C@@H]6[C@H]7CC[C@H](C7)N6C(=O)[C@@H](NC(=O)OC)C(C)C)[nH]c5c4)cc3)cc2)[nH]1)C(C)C` has a pEC50 of 11.24. In the case of `COC(=O)N[C@@H](CCC(F)(F)F)C(=O)N1CCC[C@H]1c1ncc(-c2ccc(-c3ccc(-c4cnc([C@@H]5CCCN5C(=O)[C@@H](NC(=O)OC)C(C)C)[nH]4)cc3)cc2)[nH]1`, the pEC50 was 10.40. Work on `COC(=O)N[C@H](C(=O)N[C@@H](CO)c1ncc(-c2ccc(-c3ccc(-c4cnc([C@@H]5CCCN5C(=O)[C@@H](NC(=O)OC)C(C)C)[nH]4)cc3)cc2)[nH]1)C(C)C` yielded a pEC50 of 10.11. Work on `COC(=O)N[C@H](C(=O)N1CC2(CC2)C[C@H]1c1ncc(-c2ccc(-c3ccc4cc(-c5cnc([C@@H]6[C@H]7CC[C@H](C7)N6C(=O)[C@@H](NC(=O)OC)C6CC6)[nH]5)ccc4c3)cc2)[nH]1)C(C)C` yielded a pEC50 of 10.27. With `COC(=O)N[C@H](C(=O)N1CC2(CC2)C[C@H]1c1ncc(-c2ccc3c(c2)C2(CC2)c2cc(-c4ccc5nc([C@@H]6[C@H]7CC[C@H](C7)N6C(=O)[C@@H](NC(=O)OC)C(C)C)[nH]c5c4)ccc2-3)[nH]1)C(C)C` the pEC50 was 11.14. `COC(=O)N[C@H](C(=O)N1CCC[C@H]1c1nc2ccc(C#Cc3ccc4nc([C@@H]5CCCN5C(=O)[C@@H](NC(=O)OC)C(C)C)[nH]c4c3)cc2[nH]1)C(C)C` was tested, and the pEC50 was 9.86. Compound `COC(=O)N[C@H](C(=O)N1CCC[C@H]1c1ncc(-c2ccc(-c3ccc4cc(-c5cnc([C@@H]6CCCN6C(=O)[C@H](NC(=O)OC)c6ccccc6)[nH]5)ccc4c3)cc2)[nH]1)C(C)C` has a pEC50 of 11.08. `COC(=O)N[C@H](C(=O)N1CN(C(=O)OC(C)(C)C)C[C@H]1C(=O)NCC(=O)c1ccc(-c2ccc(-c3cnc([C@@H]4CCCN4C(=O)[C@@H](NC(=O)OC)C(C)C)[nH]3)cc2)cc1)C(C)C` gave a pEC50 of 8.47. `COC(=O)N[C@H](C(=O)N1CCC(c2ncc(-c3ccc(-c4ccc(-c5cnc([C@@H]6CCCN6C(=O)[C@@H](NC(=O)OC)C(C)C)[nH]5)cc4)cc3)[nH]2)C1)C(C)C` (some centres unmarked) showed a pEC50 of 9.11. Work on `COC(=O)N[C@H](C(=O)N1CCC[C@H]1c1ncc(-c2ccc(-c3ccc(-c4cnc([C@@H]5CN(C(=O)OC(C)(C)C)CN5C(=O)[C@@H](NC(=O)OC)C(C)C)[nH]4)cc3)cc2)[nH]1)C(C)C` yielded a pEC50 of 11.30. `COC(=O)NC(C(=O)N1CCC[C@H]1c1ncc(-c2ccc3cc(-c4ccc(-c5cnc([C@@H]6C[C@H](OC(F)F)CN6C(=O)[C@@H](NC(=O)OC)C(C)C)[nH]5)cc4)ccc3c2)[nH]1)c1ccccc1` (some centres unmarked) was tested, and the pEC50 was 10.77. Work on `COC(=O)NC(C(=O)N1CCC[C@H]1c1ncc(-c2ccc3c(c2)COc2c-3ccc3cc(-c4cnc([C@@H]5CCCN5C(=O)C(NC(=O)OC)c5ccccc5)[nH]4)ccc23)[nH]1)c1ccccc1` (some centres unmarked) yielded a pEC50 of 10.56. With `COC(=O)N[C@H](C(=O)N1CCC[C@H]1c1ncc(-c2ccc(-c3ccc(-c4cnc([C@@H]5C[C@@H](COC(F)F)CN5C(=O)[C@@H](NC(=O)OC)C(C)C)[nH]4)cc3)cc2)[nH]1)C(C)C` the pEC50 was 10.89. Work on `COC(=O)N[C@H](C(=O)N1CC2(CC2)C[C@H]1c1ncc(-c2ccc3cc(-c4ccc(-c5cnc([C@@H]6[C@H]7CC[C@H](C7)N6C(=O)[C@@H](NC(=O)OC)C6CCOCC6)[nH]5)cc4)ccc3c2)[nH]1)C(C)C` yielded a pEC50 of 10.94. `CON[C@H](C(=O)N1CCC[C@H]1c1ncc(-c2ccc(-c3ccc4cc(-c5cnc([C@@H]6CCCN6C(=O)[C@@H](NC(=O)OC)C(C)C)[nH]5)ccc4c3)cc2)[nH]1)C(C)C` was tested, and the pEC50 was 9.28. Compound `COC(=O)N[C@@H](CCC#N)C(=O)N1CC2(CC2)C[C@H]1c1ncc(-c2ccc3cc(-c4ccc(-c5cnc([C@@H]6[C@H]7CC[C@H](C7)N6C(=O)[C@@H](NC(=O)OC)C(C)C)[nH]5)cc4)ccc3c2)[nH]1` has a pEC50 of 10.80. With `COC(=O)N[C@H](C(=O)N1CCC[C@H]1c1ncc(-c2ccc3c(c2)C(F)(F)c2cc(-c4ccc5nc([C@@H]6CCCN6C(=O)[C@@H](NC(=O)OC)C(C)C)[nH]c5c4)ccc2-3)[nH]1)C(C)C` the pEC50 was > 11.64. `COC(=O)N[C@H](C(=O)N1CCC[C@H]1c1ncc(-c2ccc(-c3ccc(-c4cnc([C@@H]5CN(C(=O)c6ccccc6)CN5C(=O)[C@@H](NC(=O)OC)C(C)C)[nH]4)cc3)cc2)[nH]1)C(C)C` gave a pEC50 of 10.87. With `COC[C@@H]1C[C@@H](c2ncc(-c3ccc(-c4ccc5cc(-c6cnc([C@@H]7CC8(CC8)CN7C(=O)[C@@H](NC(=O)OC)C(C)C)[nH]6)ccc5c4)cc3)[nH]2)N(C(=O)[C@@H](NC(=O)OC)C(C)C)C1` the pEC50 was 11.04. `COC(=O)N[C@H](C(=O)N1CCC[C@H]1c1ncc(-c2ccc3c(c2)COc2c-3ccc3cc(-c4cnc([C@@H]5CCCN5C(=O)[C@@H](NC(=O)OC)C(C)C)[nH]4)ccc23)[nH]1)C(C)C` gave a pEC50 of 11.36. With `COC(=O)N[C@@H](CCOC(F)F)C(=O)N1CC2(CC2)C[C@H]1c1ncc(-c2ccc3cc(-c4ccc(-c5cnc([C@@H]6[C@H]7CC[C@H](C7)N6C(=O)[C@@H](NC(=O)OC)C(C)C)[nH]5)cc4)ccc3c2)[nH]1` the pEC50 was 10.94. In the case of `COC(=O)N[C@H](C(=O)N1CC2(CC2)C[C@H]1c1ncc(-c2ccc3cc(-c4ccc(-c5cnc([C@@H]6[C@H]7CC[C@H](C7)N6C(=O)[C@H](NC(=O)OC)c6ccccc6)[nH]5)cc4)ccc3c2)[nH]1)C(C)C`, the pEC50 was 10.58.
